The values below come from ChEMBL document CHEMBL3421543, “Melanocortin antagonist tetrapeptides with minimal agonist activity at the mouse melanocortin-3 receptor” (ACS Med Chem Lett, 2015).

Holding throughout (assay type): cell-based
Test [1] concerns the target Melanocortin receptor 4 (Mus musculus) (UniProt P56450). Put plainly: (§1) Antagonist activity at mouse melanocortin-4 receptor transfected in HEK293 cells assessed as inhibition of MTII-induced response after 6 hrs by Schild analysis.
Test [2] concerns the target Melanocortin receptor 3 (Mus musculus) (UniProt P33033). Put plainly: (§2) Antagonist activity at mouse melanocortin-3 receptor transfected in HEK293 cells assessed as inhibition of MTII-induced response after 6 hrs by Schild analysis.
In test [3] the target is Melanocyte-stimulating hormone receptor (Mus musculus, UniProt Q01727). Put plainly: Agonist activity at mouse melanocortin-1 receptor transfected in HEK293 cells after 6 hrs by beta-galactosidase reporter gene assay.
Chain of Melanocyte-stimulating hormone receptor (Q01727 whole entry): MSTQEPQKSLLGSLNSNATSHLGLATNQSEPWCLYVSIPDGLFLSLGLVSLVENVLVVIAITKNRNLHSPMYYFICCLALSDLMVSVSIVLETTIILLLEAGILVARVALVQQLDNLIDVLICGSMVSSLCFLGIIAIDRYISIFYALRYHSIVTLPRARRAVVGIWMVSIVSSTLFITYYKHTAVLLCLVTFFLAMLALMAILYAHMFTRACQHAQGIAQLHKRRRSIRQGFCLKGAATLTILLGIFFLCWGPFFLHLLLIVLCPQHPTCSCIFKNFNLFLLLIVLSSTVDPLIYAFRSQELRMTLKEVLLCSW
The next test concerns the target Melanocortin receptor 5 (Mus musculus, UniProt P41149). Put plainly: Agonist activity at mouse melanocortin-5 receptor transfected in HEK293 cells after 6 hrs by beta-galactosidase reporter gene assay.
Test [4] deals with T1, Melanocortin receptor 4 (Mus musculus, UniProt P56450). The test is described as §1. The note with it: for Kb: read-out: pA2 (converted).
T1 sequence (P56450 whole entry): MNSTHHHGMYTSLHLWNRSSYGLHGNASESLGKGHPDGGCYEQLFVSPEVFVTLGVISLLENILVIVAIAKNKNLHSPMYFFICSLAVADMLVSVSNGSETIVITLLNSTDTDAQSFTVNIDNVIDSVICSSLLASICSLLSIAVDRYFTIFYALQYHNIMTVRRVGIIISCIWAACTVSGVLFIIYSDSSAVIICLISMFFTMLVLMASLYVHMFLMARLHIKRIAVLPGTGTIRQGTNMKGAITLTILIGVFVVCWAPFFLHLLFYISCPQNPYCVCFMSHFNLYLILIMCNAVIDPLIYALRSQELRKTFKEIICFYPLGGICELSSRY
The target of test [5] is T2, Melanocortin receptor 3 (Mus musculus, UniProt P33033). Put plainly: Agonist activity at mouse melanocortin-3 receptor transfected in HEK293 cells after 6 hrs by beta-galactosidase reporter gene assay.
T2 sequence (P33033 whole entry): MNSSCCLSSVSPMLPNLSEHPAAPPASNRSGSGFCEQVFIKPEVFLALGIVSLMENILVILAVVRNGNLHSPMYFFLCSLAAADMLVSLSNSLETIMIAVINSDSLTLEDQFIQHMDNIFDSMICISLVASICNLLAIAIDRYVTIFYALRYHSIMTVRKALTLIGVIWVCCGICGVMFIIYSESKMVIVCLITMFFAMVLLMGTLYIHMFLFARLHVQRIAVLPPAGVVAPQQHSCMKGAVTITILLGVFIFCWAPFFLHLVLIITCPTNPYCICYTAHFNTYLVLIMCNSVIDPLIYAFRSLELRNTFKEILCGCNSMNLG
Test [6] addresses Melanocortin receptor 3 (Mus musculus) (UniProt P33033). Put plainly: Antagonist activity at mouse melanocortin-3 receptor transfected in HEK293 cells assessed as inhibition of MTII-induced response up to 100 uM after 6 hrs by Schild analysis.
Test [7] addresses T1, Melanocortin receptor 4. Put plainly: Agonist activity at mouse melanocortin-4 receptor transfected in HEK293 cells after 6 hrs by beta-galactosidase reporter gene assay.
The target of test [8] is Melanocortin receptor 4 (Mus musculus) (UniProt P56450). Put plainly: Agonist activity at mouse melanocortin-4 receptor transfected in HEK293 cells at 100 uM after 6 hrs by beta-galactosidase reporter gene assay relative to MTII-induced maximal response.
Chain of Melanocortin receptor 4 (Mus musculus) (P56450 whole entry): as the sequence (P56450 whole entry) above
The target in test [9] is Melanocortin receptor 3 (Mus musculus) (UniProt P33033). Put plainly: Antagonist activity at mouse melanocortin-3 receptor transfected in HEK293 cells assessed as inhibition of MTII-induced response up to 10 uM after 6 hrs by Schild analysis.
Chain of Melanocortin receptor 3 (Mus musculus) (P33033 whole entry): as the sequence (P33033 whole entry) above
Test [10] shares this target. Put plainly: Agonist activity at mouse melanocortin-3 receptor transfected in HEK293 cells at 100 uM after 6 hrs by beta-galactosidase reporter gene assay relative to MTII-induced maximal response.
Test [11] concerns the target T2, Melanocortin receptor 3. The description is as §2. The note with it: read-out: pA2 (converted).
Test [12] deals with Melanocortin receptor 3 (Mus musculus) (UniProt P33033). Put plainly: Agonist activity at mouse melanocortin-3 receptor transfected in HEK293 cells at 1 uM after 6 hrs by beta-galactosidase reporter gene assay relative to MTII-induced maximal response.

The structures appear in SMILES notation. Activity calls are given as the source filed them. The calls are words filed in the database; no cut-off is given here. Where a SMILES comes first, the peptide text is derived from it. [ ]: non-standard residue; d: D form. dPhe(4-I) = N[C@H](Cc1ccc(I)cc1)C(=O)O Some results are limits rather than exact numbers.

Chain of Melanocortin receptor 5 (P41149 whole entry): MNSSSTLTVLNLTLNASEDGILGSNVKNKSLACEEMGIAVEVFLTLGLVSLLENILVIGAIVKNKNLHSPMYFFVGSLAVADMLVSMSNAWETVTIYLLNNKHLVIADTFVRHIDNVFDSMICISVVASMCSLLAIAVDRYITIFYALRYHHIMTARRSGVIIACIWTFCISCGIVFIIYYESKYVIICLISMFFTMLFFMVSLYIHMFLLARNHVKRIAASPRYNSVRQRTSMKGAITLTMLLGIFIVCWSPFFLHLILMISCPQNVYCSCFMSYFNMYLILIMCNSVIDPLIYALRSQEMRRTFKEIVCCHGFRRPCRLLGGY

On to `CC(=O)N[C@@H](Cc1cnc[nH]1)C(=O)N[C@H](Cc1ccccc1)C(=O)N[C@@H](CCCNC(=N)N)C(=O)N[C@@H](Cc1c[nH]c2ccccc12)C(N)=O`, for which the pA2 result in test [1] and in [2] was “inactive” in each case.

As to `CC(=O)N[C@@H](Cc1c[nH]c2ccccc12)C(=O)N[C@H](Cc1ccc(I)cc1)C(=O)N[C@@H](CCCNC(=N)N)C(=O)N[C@@H](Cc1csc2ccccc12)C(N)=O`, the EC50 in test [3] is 8300 nM; at Melanocortin receptor 5 it was 23700 nM; on Melanocortin receptor 3 [5], more than 100000 nM; at Melanocortin receptor 4 [7] it was more than 100000 nM. The Kb on Melanocortin receptor 4 [4] is 79.4 nM. Besides, the inhibition result in test [6] is “inactive”.

`CC(=O)N[C@@H](Cc1c[nH]c2ccccc12)C(=O)N[C@H](Cc1ccc(I)cc1)C(=O)N[C@@H](CCCNC(=N)N)C(=O)N1Cc2ccccc2C[C@H]1C(N)=O`: the EC50 in test [3] came out at 2700 nM; at Melanocortin receptor 5, 5300 nM. Besides, the Activity in [8] was found to be 44%; in test [10], 48%. In addition, the INH in [1] amounted to 1 µM. For the same compound, the Kb at Melanocortin receptor 4 [4] is 1000 nM. The inhibition result in test [9] was “inactive”.

As to `CC(=O)N[C@@H](Cc1c[nH]c2ccccc12)C(=O)N[C@H](Cc1ccc(I)cc1)C(=O)N[C@@H](CCCNC(=N)N)C(=O)N[C@@H](Cc1c[nH]c2ccccc12)C(N)=O` (Ac-W[dPhe(4-I)]RW-NH2), the EC50 in [3] was 2000 nM; on Melanocortin receptor 5, 2800 nM; at Melanocortin receptor 3 [5] it was more than 100000 nM; on Melanocortin receptor 4 [7], more than 100000 nM.

Take `CC(=O)N[C@@H](Cc1c[nH]c2ccccc12)C(=O)N[C@H](Cc1ccc(I)cc1)C(=O)N[C@@H](CCCNC(=N)N)C(=O)N[C@H](Cc1ccc2ccccc2c1)C(N)=O`: the EC50 in [3] was 5800 nM; at Melanocortin receptor 5, 19700 nM; on Melanocortin receptor 3 [5], more than 100000 nM; on Melanocortin receptor 4 [7], more than 100000 nM. Further, the Ki on Melanocortin receptor 4 [4] is less than 6 nM. For the same compound, the Kb on Melanocortin receptor 4 [4] is 5.01 nM; on Melanocortin receptor 3 [11], 2000 nM.

Take `CC(=O)N[C@@H](Cc1c[nH]c2ccccc12)C(=O)N[C@H](Cc1ccc(I)cc1)C(=O)N[C@@H](CCCNC(=N)N)C(=O)N[C@@H](Cc1ccc2ccccc2c1)C(N)=O`: the EC50 in [3] was 5500 nM; on Melanocortin receptor 5 it was 20300 nM; at Melanocortin receptor 3 [5], more than 100000 nM; at Melanocortin receptor 4 [7] it was more than 100000 nM. In addition, the Ki at Melanocortin receptor 4 [4] was less than 6 nM. Besides, the Kb on Melanocortin receptor 4 [4] was 5.01 nM; at Melanocortin receptor 3 [11], 1260 nM.

For the compound `CC(=O)N[C@@H](Cc1cnc[nH]1)C(=O)N[C@H](Cc1ccccc1)C(=O)N[C@@H](CCCN=C(N)N)C(=O)N[C@@H](Cc1c[nH]c2ccccc12)C(N)=O`, the results for the EC50 on Melanocortin receptor 5 and at Melanocortin receptor 4 [7] were 4.6 nM and 5.4 nM, respectively.

Take `CC(=O)N[C@@H](Cc1c[nH]c2ccccc12)C(=O)N[C@H](Cc1ccc(I)cc1)C(=O)N[C@@H](CCCNC(=N)N)C(=O)N[C@@H](Cc1ccccc1)C(N)=O`: the 50% effective concentration (EC50) stood at 6500 nM in [3] and 1800 nM on Melanocortin receptor 5. Further, the Activity came to 44% in [8] and 66% in test [10]. The Kb on Melanocortin receptor 4 [4] was 158 nM.

`CC(=O)N[C@@H](Cc1c[nH]c2ccccc12)C(=O)N[C@H](Cc1ccc(I)cc1)C(=O)N[C@@H](CCCNC(=N)N)C(=O)N[C@@H](Cc1ccc(-c2ccccc2)cc1)C(N)=O`: the EC50 in test [3] was 20700 nM; at Melanocortin receptor 5, 7800 nM; on Melanocortin receptor 3 [5], more than 100000 nM; at Melanocortin receptor 4 [7], more than 100000 nM. In addition, the INH in [1] came out at 0.48 µM. The Kb at Melanocortin receptor 4 [4] is 501 nM. Moreover, the inhibition entry in [6] is “inactive”.

The compound `CCCC[C@H](NC(C)=O)C(=O)N[C@H]1CC(=O)NCCCC[C@@H](C(N)=O)NC(=O)[C@H](Cc2c[nH]c3ccccc23)NC(=O)[C@H](CCCNC(=N)N)NC(=O)[C@@H](Cc2ccc3ccccc3c2)NC(=O)[C@H](Cc2c[nH]cn2)NC1=O` displayed an EC50 in [3] of 0.67 nM. The Activity in [12] is 54%.
